Data published in ChEMBL document CHEMBL1201862, “PubChem BioAssay data set” (2004).
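A five-concentration, 48-hour dose response in 96-well plates underlies each endpoint, interpolated linearly between surrounding concentrations. GI50 = concentration required for 50% inhibition of growth.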 Calls of active or inactive are those of the source. No stated cut-off is given here; in the data, active = GI50 up to about 1.1 µM and inactive = higher.

Key:
Assay in all cases: NCI-60 cell line screen, 48 h
[1] = tested on: 786-0
[2] = tested on: A498
[3] = tested on: A549
[4] = tested on: ACHN
[5] = tested on: CCRF-CEM
[6] = tested on: COLO 205
[7] = tested on: DLD-1
[8] = tested on: DMS-114
[9] = tested on: DMS-273
[10] = tested on: EKVX
[11] = tested on: HCC 2998
[12] = tested on: HCT-116
[13] = tested on: HCT-15
[14] = tested on: HL-60
[15] = tested on: HOP-18
[16] = tested on: HOP-62
[17] = tested on: HOP-92
[18] = tested on: HT-29
[19] = tested on: IGROV-1
[20] = tested on: K562
[21] = tested on: KM-20L2
[22] = tested on: KM12
[23] = tested on: LOX IMVI
[24] = tested on: LXFL 529
[25] = tested on: M14
[26] = tested on: M19-MEL
[27] = tested on: Malme-3M
[28] = tested on: NCI-H226
[29] = tested on: NCI-H23
[30] = tested on: NCI-H460
[31] = tested on: NCI-H522
[32] = tested on: OVCAR-3
[33] = tested on: OVCAR-4
[34] = tested on: OVCAR-5
[35] = tested on: OVCAR-8
[36] = tested on: RXF 393
[37] = tested on: RXF 631
[38] = tested on: SF-268
[39] = tested on: SF-295
[40] = tested on: SF-539
[41] = tested on: SK-MEL-28
[42] = tested on: SK-MEL-2
[43] = tested on: SK-MEL-5
[44] = tested on: SK-OV-3
[45] = tested on: SN12C
[46] = tested on: SNB-19
[47] = tested on: SNB-75
[48] = tested on: SNB-78
[49] = tested on: SW-620
[50] = tested on: TK-10
[51] = tested on: U-251
[52] = tested on: UACC-257
[53] = tested on: UACC-62
[54] = tested on: UO-31
[55] = tested on: XF498
[56] = tested on: CAKI-1
[57] = tested on: MOLT-4
[58] = tested on: RPMI-8226
[59] = tested on: SR

SMILES: COc1c(O)ccc(/C=N/NC(=S)NCOCCOC(C)=O)c1OC
- GI50 [1]: > 100 µM (inactive)
- GI50 [2]: > 100 µM (inactive)
- GI50 [3]: > 100 µM (inactive)
- GI50 [4]: > 100 µM (inactive)
- GI50 [5]: > 100 µM (inactive)
- GI50 [6]: > 100 µM (inactive)
- GI50 [7]: > 100 µM (inactive)
- GI50 [8]: > 100 µM (inactive)
- GI50 [9]: > 100 µM (inactive)
- GI50 [10]: > 100 µM (inactive)
- GI50 [11]: > 100 µM (inactive)
- GI50 [12]: > 100 µM (inactive)
- GI50 [13]: > 100 µM
- GI50 [14]: > 100 µM (inactive)
- GI50 [15]: > 100 µM (inactive)
- GI50 [16]: > 100 µM (inactive)
- GI50 [17]: > 100 µM (inactive)
- GI50 [18]: > 100 µM (inactive)
- GI50 [19]: > 100 µM (inactive)
- GI50 [20]: > 100 µM (inactive)
- GI50 [21]: > 100 µM (inactive)
- GI50 [22]: > 100 µM (inactive)
- GI50 [23]: > 100 µM (inactive)
- GI50 [24]: > 100 µM (inactive)
- GI50 [25]: > 100 µM (inactive)
- GI50 [26]: > 100 µM (inactive)
- GI50 [27]: > 100 µM (inactive)
- GI50 [28]: > 100 µM (inactive)
- GI50 [29]: > 100 µM (inactive)
- GI50 [30]: > 100 µM (inactive)
- GI50 [31]: > 100 µM (inactive)
- GI50 [32]: > 100 µM (inactive)
- GI50 [33]: > 100 µM (inactive)
- GI50 [34]: > 100 µM (inactive)
- GI50 [35]: > 100 µM (inactive)
- GI50 [36]: > 100 µM (inactive)
- GI50 [37]: > 100 µM (inactive)
- GI50 [38]: > 100 µM (inactive)
- GI50 [39]: > 100 µM (inactive)
- GI50 [40]: > 100 µM (inactive)
- GI50 [41]: > 100 µM (inactive)
- GI50 [42]: > 100 µM (inactive)
- GI50 [43]: > 100 µM (inactive)
- GI50 [44]: > 100 µM (inactive)
- GI50 [45]: > 100 µM (inactive)
- GI50 [46]: > 100 µM (inactive)
- GI50 [47]: > 100 µM (inactive)
- GI50 [48]: > 100 µM (inactive)
- GI50 [49]: > 100 µM (inactive)
- GI50 [50]: > 100 µM (inactive)
- GI50 [51]: > 100 µM (inactive)
- GI50 [52]: > 100 µM (inactive)
- GI50 [53]: > 100 µM (inactive)
- GI50 [54]: > 100 µM (inactive)
- GI50 [55]: > 100 µM (inactive)

SMILES: COc1cc2c([C@@H](OC(=O)c3ccccc3)c3ccc4c(c3)OCO4)nccc2c(OC)c1OC
- GI50 [1]: > 100 µM (inactive)
- GI50 [2]: 32.2 µM (inactive)
- GI50 [3]: 17.3 µM (inactive)
- GI50 [56]: 9.31 µM (inactive)
- GI50 [5]: 28.6 µM (inactive)
- GI50 [6]: 78.7 µM (inactive)
- GI50 [7]: 53.3 µM (inactive)
- GI50 [8]: 16.4 µM (inactive)
- GI50 [9]: 32.4 µM (inactive)
- GI50 [10]: 43.6 µM (inactive)
- GI50 [11]: 92 µM (inactive)
- GI50 [12]: 26.9 µM (inactive)
- GI50 [13]: 37.6 µM
- GI50 [14]: 16.4 µM (inactive)
- GI50 [15]: > 100 µM (inactive)
- GI50 [16]: > 100 µM (inactive)
- GI50 [17]: 65.5 µM (inactive)
- GI50 [18]: 67.3 µM (inactive)
- GI50 [19]: > 100 µM (inactive)
- GI50 [20]: 24.9 µM (inactive)
- GI50 [21]: 42.1 µM (inactive)
- GI50 [23]: 29.2 µM (inactive)
- GI50 [24]: 16.7 µM (inactive)
- GI50 [25]: 53.6 µM (inactive)
- GI50 [26]: 42.2 µM (inactive)
- GI50 [57]: 13.5 µM (inactive)
- GI50 [27]: 64.6 µM (inactive)
- GI50 [28]: 23.5 µM (inactive)
- GI50 [29]: 23.7 µM (inactive)
- GI50 [30]: 54 µM (inactive)
- GI50 [31]: 19.4 µM (inactive)
- GI50 [32]: 25.6 µM (inactive)
- GI50 [33]: 18.7 µM (inactive)
- GI50 [34]: 76.9 µM (inactive)
- GI50 [35]: 49.5 µM (inactive)
- GI50 [58]: 9.71 µM (inactive)
- GI50 [36]: 20.2 µM (inactive)
- GI50 [37]: 20.5 µM (inactive)
- GI50 [38]: 48.8 µM (inactive)
- GI50 [39]: 44.3 µM (inactive)
- GI50 [40]: 82.2 µM (inactive)
- GI50 [43]: 17.9 µM (inactive)
- GI50 [44]: > 100 µM (inactive)
- GI50 [45]: 38.5 µM (inactive)
- GI50 [46]: 93.8 µM (inactive)
- GI50 [47]: 11.8 µM (inactive)
- GI50 [48]: 85.7 µM (inactive)
- GI50 [59]: 17.8 µM (inactive)
- GI50 [49]: > 100 µM (inactive)
- GI50 [50]: 75.9 µM (inactive)
- GI50 [51]: 61.7 µM (inactive)
- GI50 [52]: 38.4 µM (inactive)
- GI50 [53]: 14.7 µM (inactive)
- GI50 [54]: 2.7 µM (inactive)
- GI50 [55]: 13.6 µM (inactive)
